The source of these data is patent US11135176B1 (Florida A&M University, priority 2016, dated 2021).

The nature of data set [1]: Solubility of IBU in lipids (visual). The class given is physicochemical. Also noted: key to Solubility of IBU in Geleol mono and diglyceride NF / Solubility of IBU in Glyceryl monostearate / Solubility of IBU in Stearic acid / Solubility of IBU in COMPRITOL ® 888ATO / Solubility of IBU in PRECIROL ® ATO5: +: Clear or transparent mixture implies the drug is soluble in lipid. The following applies: for Solubility of IBU in COMPRITOL ® 888ATO / Solubility of IBU in Geleol mono and diglyceride NF / Solubility of IBU in Glyceryl monostearate / Solubility of IBU in PRECIROL ® ATO5 / Solubility of IBU in Stearic acid: 90° C.
Description: The selection of lipid was done by evaluating the solubility of IBU in different lipids such as Compritol® 888ATO (glyceryl behenate), Precirol® ATOS (glyceryl palmitosterate), geleol mono and diglyceride NF, glyceryl monostearate and stearic acid. Briefly, 10 mg of IBU was weighed and added into Eppendorf tube containing 100 mg of lipid. The mixture was then heated for 10 minutes in a water bath at 90° C. to facilitate solubilization. […] Finally, total of 40 mg of drug was added in 100 mg of lipid and checked for the precipitation.

Data set [2] is described as follows: Drug solubility in 4% of surfactant, analyzed by HPLC. Type of data set: physicochemical.
[3] abbreviates: 10 mg of IBU/100 mg of solid lipid.
[4] abbreviates: 20 mg of IBU/100 mg of solid lipid.
The mark [5] stands for this setting: 30 mg of IBU/100 mg of solid lipid.
Setting [6] is: 40 mg of IBU/100 mg of solid lipid.

The structures appear in SMILES notation.

`CC(C)Cc1ccc(C(C)C(=O)O)cc1` (stereo not shown) [IBU, ibuprofen]: in data set [1] (setting [3]), the “Solubility of IBU in COMPRITOL ® 888ATO” value is reported as “+”; the “Solubility of IBU in Geleol mono and diglyceride NF” value is recorded as “+”; the “Solubility of IBU in Glyceryl monostearate” value was “+”; the “Solubility of IBU in PRECIROL ® ATO5” value is recorded as “+”. Moreover, the “Solubility of IBU in Stearic acid” value in data set [1] (setting [3]) is “+”. Also, in data set [1] (setting [4]), the “Solubility of IBU in COMPRITOL ® 888ATO” value was “+”; the “Solubility of IBU in Geleol mono and diglyceride NF” value is listed as “+”; the “Solubility of IBU in Glyceryl monostearate” value is given as “+”; the “Solubility of IBU in PRECIROL ® ATO5” value is “+”. Further, the “Solubility of IBU in Stearic acid” value in data set [1] (setting [4]) is “+”. In addition, in data set [1] (setting [5]), the “Solubility of IBU in COMPRITOL ® 888ATO” value was “+”; the “Solubility of IBU in Geleol mono and diglyceride NF” value is listed as “+”; the “Solubility of IBU in Glyceryl monostearate” value is “+”; the “Solubility of IBU in PRECIROL ® ATO5” value was “+”. In addition, the “Solubility of IBU in Stearic acid” value in data set [1] (setting [5]) is “+”. For the same compound, in data set [1] (setting [6]), the “Solubility of IBU in COMPRITOL ® 888ATO” value is reported as “+”; the “Solubility of IBU in Geleol mono and diglyceride NF” value was “+”; the “Solubility of IBU in Glyceryl monostearate” value was “+”; the “Solubility of IBU in PRECIROL ® ATO5” value was “+”. In data set [1] (setting [6]), the “Solubility of IBU in Stearic acid” value is reported as “+”. Moreover, in data set [1] (40 of IBU, heated at 90 C, Compritol 888 ATO, Precirol ATO 5, geleol mono and diglyceride NF, glyceryl monostearate and stearic acid), the “solubility of IBU in the lipid” value is given as “completely soluble”. Besides, the “drug soluble in the surfactant” value in data set [2] is given as “less than 5%”.
